Results as given in paper PMC8421423, “Cellular model system to dissect the isoform-selectivity of Akt inhibitors” (Nature Communications, 2021).
Several values for one entry are separate records, joined by “and”; a condition that tells them apart may be missing. Equal entries are not always repeated. Where two headings read alike, the source gives them in different places.

Columns and labels:
[1] = tested on: parental Ba/F3 cells; assay: CellTiter-Glo cell viability assay; type: cell-based, murine
[2] = tested on: Ba/F3^myr-Akt3 cells; assay: CellTiter-Glo cell viability assay; settings: for Log ratio EC50 [Akt] / EC50 [Akt], Akt3 / Akt2: cell viability assay Ba/F3 myr-Akt cells, log units
[3] = tested on: Ba/F3^myr-Akt1 cells; assay: CellTiter-Glo cell viability assay; settings: for Log ratio EC50 [Akt] / EC50 [Akt], Akt1 / Akt2: cell viability assay Ba/F3 myr-Akt cells, log units
Description: On day 0, cells were plated into white 384-well cell culture plates (Greiner Bio-One) using a Multidrop reagent dispenser (Thermo Fisher Scientific) at cell numbers that ensure linear and optimal luminescent signal intensity (Ba/F3myr-Akt1: 600 cells/well, Ba/F3myr-Akt2: 800 cells/well, Ba/F3myr-Akt3: 800 cells/well). […] Cell viability was analyzed on day 4 using the CellTiter-Glo Assay (Promega) as per the manufacturer’s instructions. […] All experimental points were measured in duplicates for each plate and were replicated in at least three plates.

[4] = tested on: Ba/F3^myr-Akt2 cells; assay: CellTiter-Glo cell viability assay
[5] = biological target: Akt2 (Homo sapiens, UniProt P31751); assay: STK HTRF KinEASE activity-based assay (IC50)
Chain of Akt2 (P31751 whole entry): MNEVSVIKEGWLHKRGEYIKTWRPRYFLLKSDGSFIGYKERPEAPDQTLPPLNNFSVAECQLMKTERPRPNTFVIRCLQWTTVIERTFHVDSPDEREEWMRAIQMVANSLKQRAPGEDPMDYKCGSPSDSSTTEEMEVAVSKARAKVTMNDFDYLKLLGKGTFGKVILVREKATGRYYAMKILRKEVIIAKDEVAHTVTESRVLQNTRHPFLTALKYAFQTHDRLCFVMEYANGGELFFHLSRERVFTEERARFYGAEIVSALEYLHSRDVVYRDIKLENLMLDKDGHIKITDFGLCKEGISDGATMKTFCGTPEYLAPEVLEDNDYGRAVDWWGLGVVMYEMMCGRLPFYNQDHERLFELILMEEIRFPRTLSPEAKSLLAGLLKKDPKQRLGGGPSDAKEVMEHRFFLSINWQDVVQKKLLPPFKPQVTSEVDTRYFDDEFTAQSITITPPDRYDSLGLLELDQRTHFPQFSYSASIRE
Description: The biochemical half maximal inhibitory concentrations (IC50) were determined with the STK HTRF KinEASE assay (Cisbio) according to the manufactor’s instructions. Briefly: 5 µL Kinase solution and 2.5 µL inhibitor solution (8% DMSO in HTRF buffer) were incubated for 1 h before the reaction was started by addition of 2.5 µL starting solution containing ATP and substrate peptide. […] After reaction completion (Akt1: 60 min, Akt2: 20 min, Akt3: 15 min), 10 µL of stop solution were added. […] The quotient of both intensities were recorded at eight different inhibitor concentrations and data fit to a Hill 4-parameter equation with Quattro software suite (Quattro Research GmbH, Martinsried, Germany). Each reaction was performed in duplicates and at least three independent determinations of each IC50 were made.

[6] = biological target: Akt3 (Homo sapiens, UniProt Q9Y243); assay: STK HTRF KinEASE activity-based assay (IC50)
Chain of Akt3 (Q9Y243 whole entry): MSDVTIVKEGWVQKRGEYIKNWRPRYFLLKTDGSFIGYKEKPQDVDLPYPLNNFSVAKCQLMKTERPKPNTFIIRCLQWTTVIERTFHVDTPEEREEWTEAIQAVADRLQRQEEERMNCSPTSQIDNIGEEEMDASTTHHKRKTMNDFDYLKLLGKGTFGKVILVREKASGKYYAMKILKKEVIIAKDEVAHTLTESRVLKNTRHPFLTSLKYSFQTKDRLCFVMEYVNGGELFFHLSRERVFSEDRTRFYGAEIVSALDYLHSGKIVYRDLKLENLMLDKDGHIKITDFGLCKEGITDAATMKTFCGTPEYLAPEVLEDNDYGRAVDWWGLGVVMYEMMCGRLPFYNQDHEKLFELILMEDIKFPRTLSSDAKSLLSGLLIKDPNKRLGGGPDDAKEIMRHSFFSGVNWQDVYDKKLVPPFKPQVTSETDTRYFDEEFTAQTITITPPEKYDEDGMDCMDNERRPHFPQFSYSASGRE

[7] = biological target: Akt1 (Homo sapiens, UniProt P31749); assay: STK HTRF KinEASE activity-based assay (IC50); settings: for Log ratio IC50 [Akt] / IC50 [Akt], Akt1 / Akt2: biochemical activity based assay, log units
Chain of Akt1 (P31749 whole entry): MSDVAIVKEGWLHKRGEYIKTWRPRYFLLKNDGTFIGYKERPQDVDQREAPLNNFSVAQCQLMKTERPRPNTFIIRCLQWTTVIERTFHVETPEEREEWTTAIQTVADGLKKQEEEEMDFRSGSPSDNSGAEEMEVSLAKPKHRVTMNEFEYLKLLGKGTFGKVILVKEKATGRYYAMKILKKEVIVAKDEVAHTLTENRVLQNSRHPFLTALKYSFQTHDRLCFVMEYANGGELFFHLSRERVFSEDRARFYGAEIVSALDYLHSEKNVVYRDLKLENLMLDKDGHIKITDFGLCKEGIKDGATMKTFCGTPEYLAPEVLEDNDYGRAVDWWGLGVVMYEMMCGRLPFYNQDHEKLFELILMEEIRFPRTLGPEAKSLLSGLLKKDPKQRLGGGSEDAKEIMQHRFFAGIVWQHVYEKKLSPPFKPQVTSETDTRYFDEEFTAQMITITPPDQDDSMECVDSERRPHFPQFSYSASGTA

[8] = Mus musculus, BaF3, parental cells, mean of replicates, read-out: CTG BaF3, Mean
[9] = Mus musculus, BaF3, parental cells, single replicates, read-out: CTG BaF3, individual determinations
[10] = parental cells, single replicates, read-out: CTG BaF3, individual determinations
[11] = Mus musculus, read-out: CTG BaF3myr-Akt3, Mean, mean of replicates
[12] = Mus musculus, read-out: CTG BaF3myr-Akt3, individual determinations, single replicates
[13] = read-out: CTG BaF3myr-Akt3, individual determinations, single replicates
[14] = Mus musculus, read-out: CTG BaF3myr-Akt1, Mean, mean of replicates
[15] = Mus musculus, read-out: CTG BaF3myr-Akt1, individual determinations, single replicates
[16] = read-out: CTG BaF3myr-Akt1, individual determinations, single replicates
[17] = Mus musculus, read-out: CTG BaF3myr-Akt2, Mean, mean of replicates
[18] = read-out: CTG BaF3myr-Akt2, individual determinations, single replicates
[19] = HTRF IC50 Akt2, Mean, mean of replicates
[20] = HTRF IC50 Akt2, individual determinations, single replicates
[21] = IC50 Akt2, HTRF, ATP at KM, 1 h preincubation
[22] = HTRF IC50 Akt3, Mean, mean of replicates
[23] = HTRF IC50 Akt3, individual determinations, single replicates
[24] = IC50 Akt3, HTRF, ATP at KM, 1 h preincubation
[25] = HTRF IC50 Akt1, Mean, mean of replicates
[26] = HTRF IC50 Akt1, individual determinations, single replicates
[27] = IC50 Akt1, HTRF, ATP at KM, 1 h preincubation
[28] = read-out: HTRF IC50 Akt3, individual determinations, single replicates

Row | Structure (SMILES) | EC50 [1, 8] [µM] | EC50 [1, 9] [µM] | EC50 [1, 10] | EC50 [2, 11] [µM] | EC50 [2, 12] [µM] | EC50 [2, 13] | EC50 [3, 14] [µM] | EC50 [3, 15] [µM] | EC50 [3, 16] | EC50 [4, 17] [µM] | EC50 [4, 18] | IC50 [5, 19] [µM] | IC50 [5, 20] | IC50 [5, 21] [µM] | IC50 [6, 22] [µM] | IC50 [6, 23] | IC50 [6, 24] [µM] | Log ratio IC50 [Akt] / IC50 [Akt], Akt1 / Akt2 [7] | Log ratio EC50 [Akt] / EC50 [Akt], Akt3 / Akt2 [2] | Log ratio EC50 [Akt] / EC50 [Akt], Akt1 / Akt2 [3] | also measured
1 | NC1(c2ccc(-c3nc4ccn5c(=O)[nH]nc5c4cc3-c3ccccc3)cc2)CCC1 [MK-2206, reference compound] | 7.39 | 6.96 | 5.09 µM and 9.92 µM | 5.73 | 5.9 | 5.57 µM | 1.12 | 1.16 | 0.987 µM and 1.22 µM | 1.34 | 1.97 µM and 0.931 µM and 1.12 µM | – | – | – | – | – | – | – | – | – | –
2 | C=CC(=O)Nc1ccc2[nH]c(=O)n(C3CCN(Cc4ccc(-c5ncc(C)cc5-c5ccccc5)cc4)CC3)c2c1 [compound 2] | 11.5 | 13.2 | 10.3 µM and 10.9 µM | > 30 | > 30 | > 30 µM | 3.1 | 2.81 | 3.52 µM and 2.96 µM | 2.79 | 3.99 µM and 1.13 µM and 1.58 µM | 0.15 | 0.156 µM and 0.149 µM and 0.144 µM | 0.15 ± 0.005 | 7.51 | 7.41 µM and 4.78 µM and 10.2 µM and 5.33 µM and 9.79 µM | 7.51 ± 1.82 | -0.83 | -0.46 | 0.05 | IC50 [7, 25]: 0.0218 µM; IC50 [7, 26]: 0.0221 µM and 0.0229 µM and 0.0205 µM; IC50 [7, 27]: 0.022 ± 0.002 µM; EC50 ([2]; Mus musculus, read-out: EC50 BaF3myr-Akt3, CTG): > 30 µM
3 | C=CC(=O)Nc1ccc2[nH]c(=O)n(C3CCN(Cc4ccc(-c5ncc(C(=O)O)cc5-c5ccccc5)cc4)CC3)c2c1 [compound 4] | – | – | > 30 µM | – | – | > 30 µM | – | – | > 30 µM | – | > 30 µM | – | – | – | – | – | – | -0.75 | 0 | 0 | IC50 ([5]; read-out: HTRF IC50 Akt2, Mean, mean of replicates): 0.248 µM; IC50 ([5]; read-out: HTRF IC50 Akt2, individual determinations, single replicates): 0.189 µM and 0.309 µM and 0.245 µM; IC50 ([5]; read-out: IC50 Akt2, HTRF, ATP at KM, 1 h preincubation): 0.248 ± 0.049 µM; IC50 [6, 28]: 5.7 µM and 7.19 µM and 8.39 µM; IC50 ([6]; read-out: IC50 Akt3, HTRF, ATP at KM, 1 h preincubation): 6.45 ± 0.742 µM; IC50 ([7]; read-out: HTRF IC50 Akt1, Mean, mean of replicates): 0.0443 µM; IC50 ([7]; read-out: HTRF IC50 Akt1, individual determinations, single replicates): 0.0455 µM and 0.0221 µM and 0.0653 µM; IC50 ([7]; read-out: IC50 Akt1, HTRF, ATP at KM, 1 h preincubation): 0.044 ± 0.018 µM; EC50 ([1]; CTG, parental BaF3 cell line, read-out: EC50 BaF3): > 30 µM; EC50 ([1]; parental cells, mean of replicates, read-out: CTG BaF3, Mean): > 30 µM; EC50 BaF3myr-Akt3 ([2]; CTG): generally inactive; EC50 ([2]; read-out: CTG BaF3myr-Akt3, Mean, mean of replicates): > 30 µM; EC50 ([2]; read-out: EC50 BaF3myr-Akt3, CTG): > 30 µM; EC50 BaF3myr-Akt1 ([3]; CTG): generally inactive; EC50 ([3]; read-out: CTG BaF3myr-Akt1, Mean, mean of replicates): > 30 µM; EC50 ([3]; read-out: EC50 BaF3myr-Akt1, CTG): > 30 µM; EC50 BaF3myr-Akt2 ([4]; CTG): generally inactive; EC50 ([4]; read-out: CTG BaF3myr-Akt2, Mean, mean of replicates): > 30 µM; EC50 ([4]; read-out: EC50 BaF3myr-Akt2, CTG): > 30 µM
4 | C=CC(=O)Nc1ccc2[nH]c(=O)n(C3CCN(Cc4ccc(-c5ncc(C(=O)OC)cc5-c5ccccc5)cc4)CC3)c2c1 [compound 5] | 16.3 | 18.7 | 12.7 µM and 17.6 µM | 7.65 | 7.73 | 7.85 µM and 7.37 µM | 4.92 | 5.83 | 4.17 µM and 4.75 µM | 2.71 | 3.75 µM and 1.35 µM and 1.68 µM | 0.116 | 0.119 µM and 0.116 µM and 0.114 µM | 0.116 ± 0.002 | 3.4 | 3.96 µM and 3.22 µM and 3.01 µM | 3.4 ± 0.406 | -0.52 | -0.45 | 0.26 | IC50 [7, 25]: 0.0355 µM; IC50 [7, 26]: 0.038 µM and 0.0373 µM and 0.0312 µM; IC50 [7, 27]: 0.035 ± 0.004 µM
5 | C=CC(=O)Nc1ccc2[nH]c(=O)n(C3CCN(Cc4ccc(-c5ncc(CN6CCCC6)cc5-c5ccccc5)cc4)CC3)c2c1 [compound 7] | 8.46 | 6.97 | 8.01 µM and 10.4 µM | 2.51 | 2.06 | 1.92 µM and 3.02 µM and 3.04 µM | 4.71 | 4.23 | 4.27 µM and 4.14 µM and 6.2 µM | 1.78 | 1.58 µM and 3 µM and 1.35 µM and 1.19 µM | 0.479 | 0.535 µM and 0.351 µM and 0.552 µM | 0.479 ± 0.091 | > 20 | > 20 µM | > 20 | 1.17 | -0.15 | 0.42 | IC50 [6, 28]: > 20 µM; IC50 [7, 25]: 7.09 µM; IC50 [7, 26]: 10 µM and 10.5 µM and 4.2 µM and 7.74 µM and 8.28 µM and 1.75 µM; IC50 [7, 27]: 7.09 ± 3.44 µM
